Read-outs that look alike come from different tables or passages of the source.
Assays:
Assay type in all cases: cell-based, Escherichia coli
wild-type E. coli K-12 = system: wild-type E. coli K-12
Outline: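 Checkerboard broth microdilution per CLSI in MHB II, inocula by colony resuspension; MIC taken as lowest concentration with no growth by OD600. FICI = (CA/MICA)+(CB/MICB), drug A being PAβN or NMP and drug B the antibiotic; synergy <0.5, additive >0.5–1.0, indifferent >1.0–2.0, antagonism >2.0.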

[1] = system: EKO-35 strains producing different efflux pumps (EKO-35 araC::X); test: Checkerboard synergy (FICI) of PAβN or NMP with antibiotics; settings: for MICb Alone: antibiotic alone
Protocol: (§1) Synergy measurement using checkerboard analysis was performed in 96-well microtiter plates using the microdilution broth method, according to CLSI guidelines (Patel J. B., 2015). The cell inocula were prepared using the colony resuspension method. The minimum inhibitory concentrations (MICs) were defined as the lowest concentration that provided no growth, as determined by measurement of the OD600nm using a Synergy H1 microplate reader (BioTek). Susceptibility testing was performed in MHB II with a final volume of 100 μL. PAI3N (Bachem Americas) was solubilized in MHB II. […] Solvent controls were included in each plate.
(§2) The Fractional Inhibitory Concentration Index (FICI) was used to assess the synergy of PAI3N in combination with different antibiotics. The FICI represents the ΣFIC of each drug. The FICI for each drug was calculated using the following formula: FICI=FICA+FICB=(CA/MICA)+(CB/MICB). Where MICA and MICB are the MICs of drugs A (PAI3N/NMP) and B (antibiotic) alone, and CA and CB are the MICs of the drugs in combination. The effects of PAβN or NMP in combination with antibiotics were classified as: synergistic (FICI<0.5), additive (FICI>0.5-1.0), indifferent (FICI>1.0-2.0), and antagonistic (FICI>2.0). Fold increases in resistance provided by efflux pumps were calculated by dividing the MIC values of strains expressing efflux pumps by the MIC value of EKO-35.

[2] = system: EKO-35 porinated strain expressing acrF (AcrEF); test: Checkerboard synergy (FICI), porinated strain
Protocol: as §1, §2

EKO-35-Pore = test: Checkerboard synergy (FICI), porinated strain
Protocol: as §1, §2

[3] = system: EKO-35 porinated strain expressing acrB; test: Checkerboard synergy (FICI), porinated strain
Protocol: as §1, §2

[4] = system: EKO-35-Pore acrBD408A (functionally inactive AcrB variant); test: Checkerboard synergy (FICI), porinated strain
Protocol: as §1, §2

wild-type K-12-Pore = test: Checkerboard synergy (FICI), porinated strain
Protocol: as §1, §2

[5] = strain K-12, antibiotic in combination with NMP
[6] = strain EKO-35 acrB, NMP + antibiotic
[7] = strain EKO-35 acrB, antibiotic in combination with NMP
[8] = strain EKO-35 acrEF, NMP + antibiotic
[9] = strain EKO-35 acrEF Pore, NMP + antibiotic
[10] = strain EKO-35 Pore, NMP + antibiotic
[11] = strain EKO-35 Pore, antibiotic alone
[12] = EKO-35 acrB Pore, NMP + antibiotic
[13] = strain EKO-35 acrB Pore, NMP + antibiotic
[14] = strain EKO-35 acrB Pore, antibiotic alone
[15] = strain EKO-35 acrB Pore, antibiotic in combination with NMP
[16] = EKO-35 acrBD408A Pore, NMP + antibiotic
[17] = strain EKO-35 acrBD408A Pore, NMP + antibiotic
[18] = strain EKO-35 acrBD408A Pore, antibiotic in combination with NMP
[19] = strain K-12 Pore, NMP + antibiotic
[20] = strain K-12 Pore, antibiotic alone
[21] = strain K-12 Pore, antibiotic in combination with NMP

CC[n+]1c(-c2ccccc2)c2cc(N)ccc2c2ccc(N)cc21 [ethidium bromide]
FICI (wild-type E. coli K-12; K-12, NMP + antibiotic): 0.375
Effect (wild-type E. coli K-12; strain K-12, NMP + antibiotic): Synergistic (Synergy (FICI ≤0.5))
FICI (wild-type E. coli K-12; strain K-12, NMP + antibiotic): 0.375
MICb Alone (wild-type E. coli K-12; strain K-12, antibiotic alone): 500 µg/mL
MICb Combined (wild-type E. coli K-12; [5]): 125 µg/mL
FICI ([1]; EKO-35 acrB, NMP + antibiotic): 0.253
FICI ([1]; EKO-35 acrEF, NMP + antibiotic): 0.500
Effect [1, 6]: Synergistic (Synergy (FICI ≤0.5))
FICI [1, 6]: 0.253
MICb Alone ([1]; strain EKO-35 acrB): 15.6 µg/mL
MICb Combined [1, 7]: 2 µg/mL
Effect [1, 8]: Synergistic (Synergy (FICI ≤0.5))
FICI [1, 8]: 0.500
MICb Alone ([1]; strain EKO-35 acrEF): 2 µg/mL
MICb Combined ([1]; strain EKO-35 acrEF, antibiotic in combination with NMP): 0.5 µg/mL
FICI ([2]; EKO-35 acrEF Pore, NMP + antibiotic): 0.500
Effect [2, 9]: Synergistic (Synergy (FICI ≤0.5))
FICI [2, 9]: 0.500
MICb Alone ([2]; strain EKO-35 acrEF Pore, antibiotic alone): 2 µg/mL
MICb Combined ([2]; strain EKO-35 acrEF Pore, antibiotic in combination with NMP): 0.5 µg/mL
FICI (EKO-35-Pore; EKO-35 Pore, NMP + antibiotic): 0.508
Effect (EKO-35-Pore; [10]): Additive (additive (FICI >0.5-1.0))
FICI (EKO-35-Pore; [10]): 0.508
MICb Alone (EKO-35-Pore; [11]): 0.488 µg/mL
FICI [3, 12]: 0.191
Effect [3, 13]: Synergistic (Synergy (FICI ≤0.5))
FICI [3, 13]: 0.191
MICb Alone [3, 14]: 15.6 µg/mL
MICb Combined [3, 15]: 2 µg/mL
FICI [4, 16]: 1.000
Effect [4, 17]: — (indifferent (FICI >1.0))
FICI [4, 17]: 1.000
MICb Combined [4, 18]: 0.122 µg/mL
Effect (wild-type K-12-Pore; [19]): Synergistic (Synergy (FICI ≤0.5))
MICb Alone (wild-type K-12-Pore; [20]): 250 µg/mL
MICb Combined (wild-type K-12-Pore; [21]): 31.3 µg/mL

CC(=O)NC[C@H]1CN(c2ccc(N3CCOCC3)c(F)c2)C(=O)O1 [linezolid]
Effect (wild-type E. coli K-12; K-12, NMP + antibiotic): Synergistic
FICI (wild-type E. coli K-12; K-12, NMP + antibiotic): 0.375
Effect (wild-type E. coli K-12; K-12, PAβN + antibiotic): Synergistic
FICI (wild-type E. coli K-12; K-12, PAβN + antibiotic): 0.125
MICb Alone (wild-type E. coli K-12; K-12, antibiotic alone (PAβN checkerboard)): 256 µg/mL
MICb Combined (wild-type E. coli K-12; K-12, antibiotic in combination with PAβN): 16 µg/mL
Effect (wild-type E. coli K-12; strain K-12, NMP + antibiotic): Synergistic (Synergy (FICI ≤0.5))
FICI (wild-type E. coli K-12; strain K-12, NMP + antibiotic): 0.375
MICb Alone (wild-type E. coli K-12; strain K-12, antibiotic alone): 256 µg/mL
MICb Combined (wild-type E. coli K-12; [5]): 32 µg/mL
Effect ([1]; EKO-35 acrB, NMP + antibiotic): Synergistic
FICI ([1]; EKO-35 acrB, NMP + antibiotic): 0.281
Effect ([1]; EKO-35 acrB, PAβN + antibiotic): Synergistic
MICb Combined ([1]; EKO-35 acrB, antibiotic in combination with PAβN): 16 µg/mL
Effect [1, 6]: Synergistic (Synergy (FICI ≤0.5))
FICI [1, 6]: 0.281
MICb Combined [1, 7]: 8 µg/mL
FICI (EKO-35-Pore; EKO-35 Pore, NMP + antibiotic): 2.000
FICI (EKO-35-Pore; EKO-35 Pore, PAβN + antibiotic): 1.000
MICb Alone (EKO-35-Pore; EKO-35 Pore, antibiotic alone (PAβN checkerboard)): 8 µg/mL
MICb Combined (EKO-35-Pore; EKO-35 Pore, antibiotic in combination with PAβN): 4 µg/mL
Effect (EKO-35-Pore; [10]): — (indifferent (FICI >1.0))
FICI (EKO-35-Pore; [10]): 2.000
MICb Alone (EKO-35-Pore; [11]): 8 µg/mL
MICb Combined (EKO-35-Pore; strain EKO-35 Pore, antibiotic in combination with NMP): 8 µg/mL
Effect [3, 12]: Synergistic
FICI [3, 12]: 0.250
Effect ([3]; EKO-35 acrB Pore, PAβN + antibiotic): Synergistic
MICb Alone ([3]; EKO-35 acrB Pore, antibiotic alone (PAβN checkerboard)): 128 µg/mL
MICb Combined ([3]; EKO-35 acrB Pore, antibiotic in combination with PAβN): 8 µg/mL
potentiation of the labelled compound by NMP ([3]; porinated strain producing AcrB): enhancing the activity
Effect [3, 13]: Synergistic (Synergy (FICI ≤0.5))
FICI [3, 13]: 0.250
MICb Alone [3, 14]: 128 µg/mL
MICb Combined [3, 15]: 16 µg/mL
FICI [4, 16]: 2.000
FICI ([4]; EKO-35 acrBD408A Pore, PAβN + antibiotic): 1.000
MICb Alone ([4]; EKO-35 acrBD408A Pore, antibiotic alone (PAβN checkerboard)): 8 µg/mL
MICb Combined ([4]; EKO-35 acrBD408A Pore, antibiotic in combination with PAβN): 4 µg/mL
Effect [4, 17]: — (indifferent (FICI >1.0))
FICI [4, 17]: 2.000
MICb Alone ([4]; strain EKO-35 acrBD408A Pore, antibiotic alone): 8 µg/mL
MICb Combined [4, 18]: 8 µg/mL
Effect (wild-type K-12-Pore; K-12 Pore, NMP + antibiotic): Synergistic
Effect (wild-type K-12-Pore; K-12 Pore, PAβN + antibiotic): Synergistic
FICI (wild-type K-12-Pore; K-12 Pore, PAβN + antibiotic): 0.250
MICb Alone (wild-type K-12-Pore; K-12 Pore, antibiotic alone (PAβN checkerboard)): 128 µg/mL
MICb Combined (wild-type K-12-Pore; K-12 Pore, antibiotic in combination with PAβN): 16 µg/mL
Effect (wild-type K-12-Pore; [19]): Synergistic (Synergy (FICI ≤0.5))
MICb Alone (wild-type K-12-Pore; [20]): 128 µg/mL
MICb Combined (wild-type K-12-Pore; [21]): 32 µg/mL

— US20230407243A1, “GENETIC PLATFORM TO INVESTIGATE THE FUNCTIONS OF BACTERIAL DRUG EFFLUX PUMPS” (priority 2022, published 2023)
